# Reference: ChEMBL document CHEMBL3132823, “Novel radioiodinated 1,3,4-oxadiazole derivatives with improved in vivo properties for SPECT imaging of -amyloid plaques” (Medchemcomm, 2014)
# Calls of active or inactive are those of the source. No cut-off for these calls is given here.
# Legend:
# Heart [1] = assay: Biodistribution in iv dosed ddY mouse heart measured per gram of tissue after 2 mins by automatic gamma counting; format: ADME, organism-based; settings: in vivo
# Heart [2] = assay: Biodistribution in iv dosed ddY mouse heart measured per gram of tissue after 10 mins by automatic gamma counting; format: ADME, organism-based; settings: in vivo
# Liver [3] = assay: Biodistribution in iv dosed ddY mouse liver measured per gram of tissue after 2 mins by automatic gamma counting; format: ADME, organism-based; settings: in vivo
# Brain [4] = assay: Biodistribution in iv dosed ddY mouse brain measured per gram of tissue after 60 mins by automatic gamma counting; format: ADME, organism-based; settings: in vivo, 1 h
# Intestine [5] = assay: Biodistribution in iv dosed ddY mouse intestine measured per gram of tissue after 10 mins by automatic gamma counting; format: ADME, organism-based; settings: in vivo
# Brain [6] = assay: Biodistribution in iv dosed ddY mouse brain measured per gram of tissue after 2 mins by automatic gamma counting; format: ADME, organism-based; settings: in vivo
# Blood [7] = assay: Biodistribution in iv dosed ddY mouse blood measured per gram of tissue after 2 mins by automatic gamma counting; format: ADME, organism-based; settings: in vivo
# Blood [8] = assay: Biodistribution in iv dosed ddY mouse blood measured per gram of tissue after 10 mins by automatic gamma counting; format: ADME, organism-based; settings: in vivo
# Intestine [9] = assay: Biodistribution in iv dosed ddY mouse intestine measured per gram of tissue after 30 mins by automatic gamma counting; format: ADME, organism-based; settings: in vivo, 0.5 h
# Liver [10] = assay: Biodistribution in iv dosed ddY mouse liver measured per gram of tissue after 10 mins by automatic gamma counting; format: ADME, organism-based; settings: in vivo
# Liver [11] = assay: Biodistribution in iv dosed ddY mouse liver measured per gram of tissue after 30 mins by automatic gamma counting; format: ADME, organism-based; settings: in vivo, 0.5 h
# Kidney [12] = assay: Biodistribution in iv dosed ddY mouse kidney measured per gram of tissue after 10 mins by automatic gamma counting; format: ADME, organism-based; settings: in vivo
# Kidney [13] = assay: Biodistribution in iv dosed ddY mouse kidney measured per gram of tissue after 30 mins by automatic gamma counting; format: ADME, organism-based; settings: in vivo, 0.5 h
# Blood [14] = assay: Biodistribution in iv dosed ddY mouse blood measured per gram of tissue after 60 mins by automatic gamma counting; format: ADME, organism-based; settings: in vivo, 1 h
# Spleen [15] = assay: Biodistribution in iv dosed ddY mouse spleen measured per gram of tissue after 60 mins by automatic gamma counting; format: ADME, organism-based; settings: in vivo, 1 h
# Stomach [16] = assay: Biodistribution in iv dosed ddY mouse stomach measured per organ after 60 mins by automatic gamma counting; format: ADME, organism-based; settings: in vivo, 1 h
# Kidney [17] = assay: Biodistribution in iv dosed ddY mouse kidney measured per gram of tissue after 2 mins by automatic gamma counting; format: ADME, organism-based; settings: in vivo
# Intestine [18] = assay: Biodistribution in iv dosed ddY mouse intestine measured per gram of tissue after 2 mins by automatic gamma counting; format: ADME, organism-based; settings: in vivo
# Liver [19] = assay: Biodistribution in iv dosed ddY mouse liver measured per gram of tissue after 60 mins by automatic gamma counting; format: ADME, organism-based; settings: in vivo, 1 h
# Pancreas [20] = assay: Biodistribution in iv dosed ddY mouse pancreas measured per gram of tissue after 2 mins by automatic gamma counting; format: ADME, organism-based; settings: in vivo
# Stomach [21] = assay: Biodistribution in iv dosed ddY mouse stomach measured per organ after 10 mins by automatic gamma counting; format: ADME, organism-based; settings: in vivo
# Brain [22] = assay: Biodistribution in iv dosed ddY mouse brain measured per gram of tissue after 30 mins by automatic gamma counting; format: ADME, organism-based; settings: in vivo, 0.5 h
# Pancreas [23] = assay: Biodistribution in iv dosed ddY mouse pancreas measured per gram of tissue after 30 mins by automatic gamma counting; format: ADME, organism-based; settings: in vivo, 0.5 h
# Pancreas [24] = assay: Biodistribution in iv dosed ddY mouse pancreas measured per gram of tissue after 60 mins by automatic gamma counting; format: ADME, organism-based; settings: in vivo, 1 h
# Kidney [25] = assay: Biodistribution in iv dosed ddY mouse kidney measured per gram of tissue after 60 mins by automatic gamma counting; format: ADME, organism-based; settings: in vivo, 1 h
# Blood [26] = assay: Biodistribution in iv dosed ddY mouse blood measured per gram of tissue after 30 mins by automatic gamma counting; format: ADME, organism-based; settings: in vivo, 0.5 h
# Spleen [27] = assay: Biodistribution in iv dosed ddY mouse spleen measured per gram of tissue after 2 mins by automatic gamma counting; format: ADME, organism-based; settings: in vivo
# Intestine [28] = assay: Biodistribution in iv dosed ddY mouse intestine measured per gram of tissue after 60 mins by automatic gamma counting; format: ADME, organism-based; settings: in vivo, 1 h
# Pancreas [29] = assay: Biodistribution in iv dosed ddY mouse pancreas measured per gram of tissue after 10 mins by automatic gamma counting; format: ADME, organism-based; settings: in vivo
# Stomach [30] = assay: Biodistribution in iv dosed ddY mouse stomach measured per organ after 30 mins by automatic gamma counting; format: ADME, organism-based; settings: in vivo, 0.5 h
# Brain [31] = assay: Biodistribution in iv dosed ddY mouse brain measured per gram of tissue after 10 mins by automatic gamma counting; format: ADME, organism-based; settings: in vivo
# Stomach [32] = assay: Biodistribution in iv dosed ddY mouse stomach measured per organ after 2 mins by automatic gamma counting; format: ADME, organism-based; settings: in vivo
# Plasma = assay: Metabolic stability in mouse plasma at 11 kBq after 1 hr at 37 degC by HPLC analysis; format: ADME, cell-free
# Heart [33] = assay: Biodistribution in iv dosed ddY mouse heart measured per gram of tissue after 30 mins by automatic gamma counting; format: ADME, organism-based; settings: in vivo, 0.5 h
# Spleen [34] = assay: Biodistribution in iv dosed ddY mouse spleen measured per gram of tissue after 10 mins by automatic gamma counting; format: ADME, organism-based; settings: in vivo
# Heart [35] = assay: Biodistribution in iv dosed ddY mouse heart measured per gram of tissue after 60 mins by automatic gamma counting; format: ADME, organism-based; settings: in vivo, 1 h
# Spleen [36] = assay: Biodistribution in iv dosed ddY mouse spleen measured per gram of tissue after 30 mins by automatic gamma counting; format: ADME, organism-based; settings: in vivo, 0.5 h
# [37] = target: T1, Amyloid-beta precursor protein (Homo sapiens, UniProt P05067); assay: Inhibition of [125I]IMPY binding to amyloid beta (1 to 42) aggregates (unknown origin) by gamma counting
# Mus musculus [38] = assay: In vivo binding affinity to amyloid beta plaques in iv dosed Tg2576 transgenic mouse brain after 70 mins by autoradiography analysis; format: functional, organism-based; settings: tested as the 125I-labelled form
# [39] = Octanol-phosphate buffer partition coefficient, log p of the compound at pH 7.4 by automatic gamma counting; format: physicochemical
# Mus musculus [40] = assay: In vivo binding affinity to amyloid beta plaques in iv dosed wild type mouse brain after 70 mins by autoradiography analysis; format: functional, organism-based; settings: tested as the 125I-labelled form
# [41] = target: T1, Amyloid-beta precursor protein; assay: In vitro binding affinity to amyloid beta plaques in human AD brain at 148 kBq after 1 hr incubation at room temperature by autoradiography analysis; settings: tested as the 125I-labelled form
# Mus musculus [42] = assay: In vivo binding affinity to amyloid beta plaques in iv dosed wild type mouse brain at 44 to 48 MBq after 20 to 80 mins by SPECT study; format: functional, organism-based; settings: 44 to 48 M, tested as the 125I-labelled form
# Mus musculus [43] = assay: In vivo binding affinity to amyloid beta plaques in iv dosed Tg2576 transgenic mouse brain at 44 to 48 MBq after 20 to 80 mins by SPECT study; format: functional, organism-based; settings: 44 to 48 M, tested as the 125I-labelled form
# T1 sequence (P05067 whole entry): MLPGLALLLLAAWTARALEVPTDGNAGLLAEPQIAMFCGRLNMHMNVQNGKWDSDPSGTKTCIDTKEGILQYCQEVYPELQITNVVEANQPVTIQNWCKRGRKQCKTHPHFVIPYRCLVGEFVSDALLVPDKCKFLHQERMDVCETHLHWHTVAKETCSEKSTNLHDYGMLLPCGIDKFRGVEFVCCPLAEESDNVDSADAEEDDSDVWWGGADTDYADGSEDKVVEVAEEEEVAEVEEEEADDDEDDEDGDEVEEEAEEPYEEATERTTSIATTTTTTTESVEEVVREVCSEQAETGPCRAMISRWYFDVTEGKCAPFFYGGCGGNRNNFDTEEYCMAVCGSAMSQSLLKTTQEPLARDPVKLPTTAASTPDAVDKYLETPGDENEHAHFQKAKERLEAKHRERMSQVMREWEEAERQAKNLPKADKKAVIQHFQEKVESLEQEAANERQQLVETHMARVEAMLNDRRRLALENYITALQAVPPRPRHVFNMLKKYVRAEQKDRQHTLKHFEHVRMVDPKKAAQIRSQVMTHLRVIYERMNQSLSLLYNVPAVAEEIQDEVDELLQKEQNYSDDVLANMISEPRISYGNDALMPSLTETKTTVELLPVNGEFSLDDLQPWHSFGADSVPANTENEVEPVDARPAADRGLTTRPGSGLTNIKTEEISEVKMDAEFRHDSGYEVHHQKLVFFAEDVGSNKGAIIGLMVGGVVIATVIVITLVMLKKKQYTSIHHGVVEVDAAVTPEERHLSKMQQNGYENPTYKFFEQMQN
structure (smiles),measurement,setting,value
CN(C)c1ccc(-c2nnc(-c3ccc([125I])cc3)o2)cn1,Drug uptake,Heart [1],4.48 %ID
same,Drug uptake,Heart [2],2.15 %ID
same,Drug uptake,Liver [3],6.41 %ID
same,Drug uptake,Brain [4],0.4 %ID
same,Drug uptake,Intestine [5],3.38 %ID
same,Drug uptake,Brain [6],3.88 %ID
same,Drug uptake,Blood [7],1.93 %ID
same,Drug uptake,Blood [8],2.33 %ID
same,Drug uptake,Intestine [9],5.29 %ID
same,Drug uptake,Liver [10],7.44 %ID
same,Drug uptake,Liver [11],3.86 %ID
same,Drug uptake,Kidney [12],4.61 %ID
same,Drug uptake,Kidney [13],2.96 %ID
same,Drug uptake,Blood [14],1.79 %ID
same,Drug uptake,Spleen [15],1.74 %ID
same,Drug uptake,Stomach [16],10.24 %ID
same,Drug uptake,Kidney [17],6.43 %ID
same,Drug uptake,Intestine [18],1.5 %ID
same,Drug uptake,Liver [19],2.61 %ID
same,Drug uptake,Pancreas [20],4.92 %ID
same,Drug uptake,Stomach [21],2.49 %ID
same,Drug uptake,Brain [22],1.05 %ID
same,Drug uptake,Pancreas [23],1.67 %ID
same,Drug uptake,Pancreas [24],1.27 %ID
same,Drug uptake,Kidney [25],2.99 %ID
same,Drug uptake,Blood [26],1.97 %ID
same,Drug uptake,Spleen [27],2.97 %ID
same,Drug uptake,Intestine [28],8.57 %ID
same,Drug uptake,Pancreas [29],3.07 %ID
same,Drug uptake,Stomach [30],7.25 %ID
same,Drug uptake,Brain [31],3.03 %ID
same,Drug uptake,Stomach [32],0.91 %ID
same,Stability,Plasma,Stable
same,Drug uptake,Heart [33],1.31 %ID
same,Drug uptake,Spleen [34],3.01 %ID
same,Drug uptake,Heart [35],1.13 %ID
same,Drug uptake,Spleen [36],1.72 %ID
CN(C)c1ccc(-c2nnc(-c3ccc(I)cc3)o2)cc1,Ki,[37],3.91 nM
CN(C)c1ccc(-c2nnc(-c3cccc([125I])c3)o2)cn1,Drug uptake,Heart [1],5.76 %ID
same,Drug uptake,Heart [2],2.39 %ID
same,Drug uptake,Liver [3],6.06 %ID
same,Drug uptake,Brain [4],0.48 %ID
same,Drug uptake,Intestine [5],4.08 %ID
same,Drug uptake,Brain [6],4.12 %ID
same,Drug uptake,Blood [7],1.82 %ID
same,Drug uptake,Blood [8],1.65 %ID
same,Drug uptake,Intestine [9],8.77 %ID
same,Drug uptake,Liver [10],11.5 %ID
same,Drug uptake,Liver [11],8.42 %ID
same,Drug uptake,Kidney [12],4.59 %ID
same,Drug uptake,Kidney [13],2.95 %ID
same,Drug uptake,Blood [14],1.76 %ID
same,Drug uptake,Spleen [15],1.21 %ID
same,Drug uptake,Stomach [16],7.9 %ID
same,Drug uptake,Kidney [17],8.85 %ID
same,Drug uptake,Intestine [18],2.28 %ID
same,Drug uptake,Liver [19],5.94 %ID
same,Drug uptake,Pancreas [20],5.15 %ID
same,Drug uptake,Stomach [21],2.01 %ID
same,Drug uptake,Brain [22],0.87 %ID
same,Drug uptake,Pancreas [23],1.56 %ID
same,Drug uptake,Pancreas [24],1.28 %ID
same,Drug uptake,Kidney [25],2.3 %ID
same,Drug uptake,Blood [26],1.67 %ID
same,Drug uptake,Spleen [27],2.67 %ID
same,Drug uptake,Intestine [28],12.08 %ID
same,Drug uptake,Pancreas [29],2.46 %ID
same,Drug uptake,Stomach [30],5.67 %ID
same,Drug uptake,Brain [31],2.63 %ID
same,Drug uptake,Stomach [32],0.86 %ID
same,Stability,Plasma,Stable
same,Drug uptake,Heart [33],1.27 %ID
same,Drug uptake,Spleen [34],1.74 %ID
same,Drug uptake,Heart [35],1.14 %ID
same,Drug uptake,Spleen [36],1.39 %ID
CN(C)c1ccc(-c2nnc(-c3ccc(I)cc3)o2)cn1,Activity,Mus musculus [38],Active
same,logD,[39],2.06
same,Ki,[37],24.8 nM
same,inhibition,[37],Dose-dependent effect
same,Activity,Mus musculus [40],inactive
same,Activity,[41],Active
CN(C)c1ccc(-c2nnc(-c3cccc(I)c3)o2)cn1,Activity,Mus musculus [38],Active
same,Activity,Mus musculus [42],inactive
same,logD,[39],2.06
same,Ki,[37],13.6 nM
same,inhibition,[37],Dose-dependent effect
same,Activity,Mus musculus [40],inactive
same,Activity,[41],Active
same,Activity,Mus musculus [43],Active
